In patent publication US20250263376A1, “(E)-N-CINNAMOYLAMINOALKANOLS WITH MELANOGENESIS INHIBITORY ACTIVITY” (Uniwersytet Jagiellonski, priority 2024, published 2025):

How the values were obtained:
[1] = Lipophilicity coefficient RM0 by reversed phase thin layer chromatography; assay type: physicochemical; conditions: RP-18 TLC, methanol/phosphate buffer pH=7.4
Description: Confirmation of the identity and purity of the obtained compounds consisted in the registration and interpretation of 1H NMR and 13C NMR spectra (the spectra were recorded using an ECZR 500 MHZ (JEOL) series FT-NMR spectrophotometer), as well as the registration and interpretation of LC-MS spectra (the spectra were recorded using Acquita UPLC system (Waters) coupled with a Waters TQD mass spectrometer). The melting point was measured using the open capillary method in the IA9300 device (Electrothermal). The lipophilicity coefficient RM0 was determined by reversed phase thin layer chromatography. In the study, aluminum plates 20×20 cm covered with modified silica gel RP-18 F254 (Merck) were used as the solid phase. The mobile phase consisted of solutions of methanol and 100 mM phosphate buffer (pH=7.4), characterized by a variable methanol content ranging from 95 to 65% (v/v). The tested compounds were dissolved in methanol to obtain solutions with a concentration of 1 mg/mL. Then, […] of the solutions prepared in this way were transferred to the starting line on aluminum plates, which were then placed in chromatographic chambers previously saturated with mobile phase vapors for at least 1 hour. All activities, including the development of chromatograms, were carried out at room temperature. After developing the chromatograms to approximately 1-2 cm from the end of the plate, the plates were dried and then the distance traveled by the tested compounds was visualized under UV light (λ=254 nm). The experiment was performed in duplicate for the specified conditions. For all samples, Rf was calculated according to the formula Rf=a/b, where a—the distance traveled by the tested compound, b—the distance traveled by the mobile phase. Then, the RM parameter was calculated for all samples according to the formula RM=log (1/Rf−1), obtaining a linear relationship between the RM values and the methanol concentration in the mobile phase. The log P coefficient was also calculated using the following computer programs: ACD/ChemSketch 2020.1.2 and ChemDraw 20.0.0.41.

tyrosinase from mushroom [2] = molecular target: T1, tyrosinase from mushroom (Agaricus bisporus, UniProt C7FF04); assay: Inhibition of commercial mushroom tyrosinase, substrate L-DOPA; assay type: biochemical; conditions: read-out: Tyrosinase inhibition with L-DOPA [%]
T1 sequence (C7FF04 2-392): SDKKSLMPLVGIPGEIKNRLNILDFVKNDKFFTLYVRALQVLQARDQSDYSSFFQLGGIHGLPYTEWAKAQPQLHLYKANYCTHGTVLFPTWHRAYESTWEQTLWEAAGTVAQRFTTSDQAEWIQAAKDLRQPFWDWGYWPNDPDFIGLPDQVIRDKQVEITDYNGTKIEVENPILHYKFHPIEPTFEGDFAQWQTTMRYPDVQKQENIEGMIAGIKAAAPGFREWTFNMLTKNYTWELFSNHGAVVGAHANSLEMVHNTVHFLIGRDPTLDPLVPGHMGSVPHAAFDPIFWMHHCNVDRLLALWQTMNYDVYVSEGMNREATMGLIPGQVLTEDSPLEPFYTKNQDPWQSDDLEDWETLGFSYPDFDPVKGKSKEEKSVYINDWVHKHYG
T1 sequence (G1K3P4 entry or part of it, further chain): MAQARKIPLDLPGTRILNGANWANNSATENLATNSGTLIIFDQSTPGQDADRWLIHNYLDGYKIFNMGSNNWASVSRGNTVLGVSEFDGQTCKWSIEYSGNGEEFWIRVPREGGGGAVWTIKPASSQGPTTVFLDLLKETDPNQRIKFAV
Description: (§1) Studies on the Inhibition of the Activity of Commercial Tyrosinase from Mushroom (Sigma: T3824)
(§2) The following substrates were used for the enzymatic reaction: L-tyrosine and L-3,4-dihyroxyphenylalanine (L-DOPA). Both substrates were used in independent experiments. According to the literature, the use of L-DOPA enables the assessment of tyrosinase diphenolase activity, and L-tyrosine—the tyrosinase monophenolase activity. The determinations were performed in 96-well plates, in each well there was placed: 170 μL or 127.5 μL of 50 mM phosphate buffer (pH=6.8) with tyrosinase (1U/well or 3U/well) and 10 μL of a solution of the tested compound in DMSO (the final concentration in the well was 500 μM, 250 μM or 125 μM). The negative control used 10 u L of pure solvent (DMSO). To initiate the reaction, an appropriate substrate was added: L-tyrosine (62.5 μL of solution in phosphate buffer) or L-DOPA (20 μL of solution in phosphate buffer). After a 25-minute incubation, the absorbance was measured at 475 nm using a microplate reader. The percentage of inhibition of tyrosinase activity was calculated using the formula: [(AC−AT)/[…], where AC—is the absorbance of the negative control, AT—is the absorbance of the sample containing the tested compound.

tyrosinase from mushroom [3] = molecular target: T1, tyrosinase from mushroom; assay: Inhibition of commercial mushroom tyrosinase, substrate L-tyrosine; assay type: biochemical; conditions: read-out: Tyrosinase inhibition with L-tyrosine [%]
Description: as §1, §2

[4] = system: B16-F10 murine melanoma cell line; assay: Cytotoxicity (MTT) in B16-F10 murine melanoma cells; assay type: cell-based; conditions: 48 h
Description: Cytotoxicity Assessment in the B16-F10 Murine Melanoma Cell Line (ATTC CRL-6745)—Preliminary Safety Assessment for Subsequent Studies
In order to determine safe doses of compounds for testing the inhibition of melanogenesis in a murine melanoma cell line, cytotoxicity tests were performed. Cytotoxicity was determined by the colorimetric method using MTT ([3-(4,5-dimethyl-2-thiazolyl)-2,5-diphenyl-2H-tetrazolium bromide, Sigma M5655). For this purpose, cells were transferred to 96-well plates in an amount of 5000/well. After 24 h of culture in an incubator in F10-Ham medium with 1% FBS, the tested compounds at various concentrations were added to the wells together with fresh medium. DMSO was added to the medium in a negative control. The MTT test was performed after further culture for 48 h. Then the medium was removed and the formed formazan crystals were dissolved in DMSO. The absorbance was measured at 570 nm in a plate reader and the result was compared to the control (DMSO), which was 100%. The percentage of viability was calculated using the formula: [AT/AC*100], where AT is the absorbance of the test sample, AC—absorbance of the control sample.

primary melanocytes = assay: Safety, MTT test in primary melanocytes; assay type: cell-based; conditions: 48 hours
Description: In order to test the safety of the compounds, both normal human cells were used: keratinocytes (HaCaT), fibroblasts (BJ), primary melanocytes that occur in the skin, as well as human cancer cells: the hepatocarcinoma line HepG2 and the neuroblastoma line SH-SY5Y, which are considered a model for the assessment of hepatocytotoxicity and neurocytotoxicity. The concentrations of the tested compounds in the range of […] were used in the studies. The cell lines used in the research were purchased from the American Type Culture Collection (ATCC) and were cultured in media recommended by the manufacturer with the addition of FBS and antibiotics in an incubator ensuring appropriate culture conditions, i.e. humidity, temperature and CO2 concentration. Cells were seeded into multiwell plates and incubated with the test compounds for 48 hours. After this time, MTT and LDH tests were performed to assess cell viability. The MTT test is based on the ability to transform the substrate: [3-(4,5-dimethyl-2-thiazolyl)-2,5-diphenyl-2H-tetrazolium bromide into a colored product only by living cells. The absorbance at 570 nm, which corresponds to the absorption maximum for the product, is directly proportional to cell viability. The LDH test is based on testing the activity of the enzyme lactate dehydrogenase in the culture medium, which is released from cells as a result of damage to the cell membrane, e.g. as a result of cell death. Triton X-100 was used as a positive control in the test. The determination is colorimetric, the substrate is transformed by the released enzyme into a colored product, an increase in absorbance indicates a larger amount of the released enzyme, and thus confirms greater damage to cell membranes. Tables 7 and 8 present the results obtained, which correspond to the viability of cells incubated with the compounds in relation to the viability of cells constituting a control sample, i.e. incubated with the solvent (DMSO) at the same concentration as in the case of the groups tested in the MTT test or in relation to the results obtained for the Triton X-100 positive control in the LDH test. They indicate that the compounds are safe at the concentrations tested.

| Structure (SMILES) | RM0 [1] | inhibition at 250 µM (tyrosinase from mushroom [2]) [%] | inhibition at 500 µM (tyrosinase from mushroom [3]) [%] | Cytotoxicity study in B16F10 cells, % viability ([4]; 150 μM) [%] | Cytotoxicity study in B16F10 cells, % viability ([4]; 200 μM) [%] | Cytotoxicity study in B16F10 cells, % viability ([4]; 250 μM) [%] | MTT, Primary melanocytes (primary melanocytes; 100 μM) | MTT, Primary melanocytes (primary melanocytes; 150 μM) | MTT, Primary melanocytes (primary melanocytes; 200 μM) | MTT, Primary melanocytes (primary melanocytes; 250 μM) | inhibition at 500 µM (tyrosinase from mushroom [2]) [%] | inhibition at 500 µM (tyrosinase from mushroom [2]; 500 μM) [%] | inhibition at 500 µM (tyrosinase from mushroom [3]; 500 μM) [%] |
| --- | --- | --- | --- | --- | --- | --- | --- | --- | --- | --- | --- | --- | --- |
| O=C(/C=C/c1ccc(Cl)cc1)NCCCCCO [Compound A-111, (2E)-3-(4-chlorophenyl)-N-(5-hydroxypentyl)prop-2-enamide] | 2.79 | 59.9 ± 1.56 | 89 ± 0.98 | 88.2 | 95.6 | 89.7 | 104.51 ± 1.19 % of solvent control | 103.09 ± 1.79 % of solvent control | 99.25 ± 1.92 % of solvent control | 93.39 ± 1.60 % of solvent control |  |  |  |
| O=C(/C=C/c1ccccc1)NCCCCCO [Compound A-133, (2E)-N-(5-hydroxypentyl)-3-phenylprop-2-enamide] | 2.15 |  | 58.6 ± 4.58 | 101.7 | 94.9 | 95.6 | 103.69 ± 2.57 % of solvent control | 101.88 ± 2.47 % of solvent control | 97.05 ± 2.96 % of solvent control | 88.88 ± 2.26 % of solvent control | 48 ± 1.83 |  |  |
| O=C(/C=C/c1ccc(Cl)cc1)NCCCO [H-330/21, (2E)-3-(4-chlorophenyl)-N-(3-hydroxypropyl)prop-2-enamide] | 1.94 |  |  | 78.6 | 82.9 | 83.9 | 101.42 ± 2.21 % of solvent control | 97.02 ± 4.49 % of solvent control | 93.78 ± 2.29 % of solvent control | 90.27 ± 2.25 % of solvent control |  | 55.3 ± 1.39 | 82.49 ± 0.65 |
| Cc1ccc(/C=C/C(=O)NCCCCCO)cc1 [H-415/21, (2E)-N-(5-hydroxypentyl)-3-(4-methylphenyl)prop-2-enamide] | 2.49 |  | 25 ± 5.67 | 85.2 | 90.3 | 75.7 | 103.27 ± 1.88 % of solvent control | 99.89 ± 2.43 % of solvent control | 94.81 ± 2.92 % of solvent control | 87.64 ± 1.44 % of solvent control | 30.4 ± 0.88 |  |  |
| O=C(/C=C/c1ccccc1)NCCCCCCO [H-425/21, (E)-N-(6-hydroxyhexyl)cinnamic acid amide] | 2.40 |  |  | 109.2 | 98.4 | 86.9 |  |  |  |  |  | 34.6 ± 2.46 | 44.6 ± 5.99 |
| O=C(/C=C/c1ccc(Cl)cc1)NCCO [H-427/21, (2E)-3-(4-chlorophenyl)-N-(2-hydroxyethyl)prop-2-enamide] | 1.93 |  |  | 73.7 | 80.2 | 77.8 | 102.20 ± 2.24 % of solvent control | 100.57 ± 2.18 % of solvent control | 93.78 ± 2.18 % of solvent control | 85.19 ± 2.03 % of solvent control |  | 55.8 ± 0.77 | 67.5 ± 2.66 |
